For 24 molecules, IC50 results are on record in patent US20240228506A1, “RIPK1 INHIBITORS AND METHODS OF USE” (Merck Sharp & Dohme LLC, priority 2021, published 2024).

The target of the test is T1, GST-RIPK1 (recombinant GST-RIPK1 kinase domain (residues 1-327)) (Homo sapiens, UniProt Q13546).
T1 construct: recombinant GST-RIPK1 kinase domain (residues 1-327) enzyme; made in house; host or cells: baculovirus-transfected Sf21 insect cells
T1 sequence (Q13546 1-327): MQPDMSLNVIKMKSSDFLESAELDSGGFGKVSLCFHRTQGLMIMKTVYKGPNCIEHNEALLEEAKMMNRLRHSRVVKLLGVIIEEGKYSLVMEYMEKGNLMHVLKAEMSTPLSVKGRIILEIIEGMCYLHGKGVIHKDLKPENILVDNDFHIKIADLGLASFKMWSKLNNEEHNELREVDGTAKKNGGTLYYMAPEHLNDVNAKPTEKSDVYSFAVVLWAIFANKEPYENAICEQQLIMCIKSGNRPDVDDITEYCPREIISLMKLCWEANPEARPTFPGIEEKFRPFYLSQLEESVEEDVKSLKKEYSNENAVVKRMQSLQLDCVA
As to the kind of experiment: RIPK1-ADP-Glo enzymatic assay. Format: biochemical. To be noted: 25 nM GST-RIPK1, 300 μM ATP, 3 μM dephosphorylated-MBP; 30 minutes pre-incubation, 150 minutes reaction; ten-point titration. An outline of the steps:
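Ten-point 1:3 titrations from 100000 nM, 1% DMSO, were preincubated 30 min with 25 nM GST-RIPK1 (1-327) before starting with 300 μM ATP plus 3 μM dephosphorylated MBP; 150 min reaction. ADP-Glo luminescence measured ATP-to-ADP conversion; EC50 by four-parameter sigmoidal regression.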
A general note: ADP-Glo turns the ADP formed in a reaction into a luminescent signal.
What is called IC50 is the concentration at which inhibition is half-maximal. Regarding `CC(C)(C(=O)N1C[C@@H]2C[C@H]1c1cncc(C#Cc3cnc4ccnn4c3)c1O2)C(F)F` [Compound 2-75, 3,3-difluoro-2,2-dimethyl-1-((2S,5S)-9-(pyrazolo[1,5-a]pyrimidin-6-ylethynyl)-2,3-dihydro-2,5-methanopyrido[3,4-f][1,4]oxazepin-4(5H)-yl)propan-1-one], the IC50 was determined as 27 nM.
Turning to `Cc1ncc(C#Cc2cncc3c2O[C@H]2C[C@@H]3N(C(=O)C(C)(C)C(F)F)C2)cn1` [Compound 2-76, 3,3-difluoro-2,2-dimethyl-1-((2S,5S)-9-((2-methylpyrimidin-5-yl)ethynyl)-2,3-dihydro-2,5-methanopyrido[3,4-f][1,4]oxazepin-4(5H)-yl)propan-1-one], the IC50 is 33 nM.
Then `CC(C)(C(=O)N1C[C@@H]2C[C@H]1c1cncc(C#Cc3cnc(C(F)(F)F)nc3)c1O2)C(F)F` [Compound 2-77, 3,3-difluoro-2,2-dimethyl-1-((2S,5S)-9-((2-(trifluoromethyl)pyrimidin-5-yl)ethynyl)-2,3-dihydro-2,5-methanopyrido[3,4-f][1,4]oxazepin-4(5H)-yl)propan-1-one], with 49 nM; and `CC(C)(C(=O)N1C[C@@H]2C[C@H]1c1cncc(C#Cc3cnc(C#N)nc3)c1O2)C(F)F` [Compound 2-78, 5-(((2S,5S)-4-(3,3-difluoro-2,2-dimethylpropanoyl)-2,3,4,5-tetrahydro-2,5-methanopyrido[3,4-f][1,4]oxazepin-9-yl)ethynyl)pyrimidine-2-carbonitrile], with 19 nM; and `CC(C)(C(=O)N1C[C@@H]2C[C@H]1c1cncc(C#Cc3cnc4ncnn4c3)c1O2)C(F)F` [Compound 2-79, 1-((2S,5S)-9-([1,2,4]triazolo[1,5-a]pyrimidin-6-ylethynyl)-2,3-dihydro-2,5-methanopyrido[3,4-f][1,4]oxazepin-4(5H)-yl)-3,3-difluoro-2,2-dimethylpropan-1-one], with 72 nM.
Then `CC(C)(C(=O)N1C[C@@H]2C[C@H]1c1cncc(C#Cc3cnc(C4CC4)nc3)c1O2)C(F)F` [Compound 2-80, 1-((2S,5S)-9-((2-cyclopropylpyrimidin-5-yl)ethynyl)-2,3-dihydro-2,5-methanopyrido[3,4-f][1,4]oxazepin-4(5H)-yl)-3,3-difluoro-2,2-dimethylpropan-1-one], with 24 nM.
`CC(C)(C(=O)N1C[C@@H]2C[C@H]1c1cncc(C#Cc3cnc4c(Cl)cnn4c3)c1O2)C(F)F` [Compound 2-81, 1-((2S,5S)-9-((3-chloropyrazolo[1,5-a]pyrimidin-6-yl)ethynyl)-2,3-dihydro-2,5-methanopyrido[3,4-f][1,4]oxazepin-4(5H)-yl)-3,3-difluoro-2,2-dimethylpropan-1-one]: the IC50 came out at 22 nM.
For `Cc1ncccc1C#Cc1cncc2c1O[C@H]1C[C@@H]2N(C(=O)C(C)(C)C(F)F)C1` [Compound 2-82, 3,3-difluoro-2,2-dimethyl-1-((2S,5S)-9-((2-methylpyridin-3-yl)ethynyl)-2,3-dihydro-2,5-methanopyrido[3,4-f][1,4]oxazepin-4(5H)-yl)propan-1-one], the IC50 was found to be 66 nM.
Then `CC(C)(C(=O)N1C[C@@H]2C[C@H]1c1cncc(C#Cc3ccc(C4CC4)nc3)c1O2)C(F)F` [Compound 2-83, 1-((2S,5S)-9-((6-cyclopropylpyridin-3-yl)ethynyl)-2,3-dihydro-2,5-methanopyrido[3,4-f][1,4]oxazepin-4(5H)-yl)-3,3-difluoro-2,2-dimethylpropan-1-one], with 24 nM.
For `CC(C)(C(=O)N1C[C@@H]2C[C@H]1c1cncc(C#Cc3ccc(C(F)F)nc3)c1O2)C(F)F` [Compound 2-84, 1-((2S,5S)-9-((6-(difluoromethyl)pyridin-3-yl)ethynyl)-2,3-dihydro-2,5-methanopyrido[3,4-f][1,4]oxazepin-4(5H)-yl)-3,3-difluoro-2,2-dimethylpropan-1-one] the value was 26 nM.
`CC(C)(C(=O)N1C[C@@H]2C[C@H]1c1cncc(C#Cc3cncc(C#N)c3)c1O2)C(F)F` [Compound 2-85, 5-(((2S,5S)-4-(3,3-difluoro-2,2-dimethylpropanoyl)-2,3,4,5-tetrahydro-2,5-methanopyrido[3,4-f][1,4]oxazepin-9-yl)ethynyl)nicotinonitrile]: the IC50 is 38 nM.
In the case of `CC(C)(C(=O)N1C[C@@H]2C[C@H]1c1cncc(C#Cc3ccc(C(F)(F)F)nc3)c1O2)C(F)F` [Compound 2-86, 3,3-difluoro-2,2-dimethyl-1-((2S,5S)-9-((6-(trifluoromethyl)pyridin-3-yl)ethynyl)-2,3-dihydro-2,5-methanopyrido[3,4-f][1,4]oxazepin-4(5H)-yl)propan-1-one], the IC50 worked out at 31 nM.
Then `CC(C)(C(=O)N1C[C@@H]2C[C@H]1c1cncc(C#Cc3ccc(C#N)nc3)c1O2)C(F)F` [Compound 2-87, 5-(((2S,5S)-4-(3,3-difluoro-2,2-dimethylpropanoyl)-2,3,4,5-tetrahydro-2,5-methanopyrido[3,4-f][1,4]oxazepin-9-yl)ethynyl)picolinonitrile], with 32 nM.
For `CC(C)(C(=O)N1C[C@@H]2C[C@H]1c1cncc(C#Cc3ccc(OC(F)F)nc3)c1O2)C(F)F` [Compound 2-88, 1-((2S,5S)-9-((6-(difluoromethoxy)pyridin-3-yl)ethynyl)-2,3-dihydro-2,5-methanopyrido[3,4-f][1,4]oxazepin-4(5H)-yl)-3,3-difluoro-2,2-dimethylpropan-1-one] the value was 35 nM.
As to `CC(C)(C(=O)N1C[C@@H]2C[C@H]1c1cncc(C#Cc3cncc(C(F)(F)F)c3)c1O2)C(F)F` [Compound 2-89, 3,3-difluoro-2,2-dimethyl-1-((2S,5S)-9-((5-(trifluoromethyl)pyridin-3-yl)ethynyl)-2,3-dihydro-2,5-methanopyrido[3,4-f][1,4]oxazepin-4(5H)-yl)propan-1-one], the IC50 stood at 34 nM.
As to `CC(C)(C(=O)N1C[C@@H]2C[C@H]1c1cncc(C#Cc3cncc(Cl)c3)c1O2)C(F)F` [Compound 2-90, 1-((2S,5S)-9-((5-chloropyridin-3-yl)ethynyl)-2,3-dihydro-2,5-methanopyrido[3,4-f][1,4]oxazepin-4(5H)-yl)-3,3-difluoro-2,2-dimethylpropan-1-one], the IC50 stood at 28 nM.
As for `Cc1ccc(C#Cc2cncc3c2O[C@H]2C[C@@H]3N(C(=O)C(C)(C)C(F)F)C2)c(C)n1` [Compound 2-91, 1-((2S,5S)-9-((2,6-dimethylpyridin-3-yl)ethynyl)-2,3-dihydro-2,5-methanopyrido[3,4-f][1,4]oxazepin-4(5H)-yl)-3,3-difluoro-2,2-dimethylpropan-1-one], the IC50 came out at 65 nM.
In the case of `COc1ccc(C#Cc2cncc3c2O[C@H]2C[C@@H]3N(C(=O)C(C)(C)C(F)F)C2)cn1` [Compound 2-92, 3,3-difluoro-1-((2S,5S)-9-((6-methoxypyridin-3-yl)ethynyl)-2,3-dihydro-2,5-methanopyrido[3,4-f][1,4]oxazepin-4(5H)-yl)-2,2-dimethylpropan-1-one], the IC50 is 19 nM.
As to `CC(C)(C(=O)N1C[C@@H]2C[C@H]1c1cncc(C#Cc3cnc4cncn4c3)c1O2)C(F)F` [Compound 2-93, 3,3-difluoro-1-((2S,5S)-9-(imidazo[1,5-a]pyrimidin-3-ylethynyl)-2,3-dihydro-2,5-methanopyrido[3,4-f][1,4]oxazepin-4(5H)-yl)-2,2-dimethylpropan-1-one], the IC50 was determined as 58 nM.
For `COc1ncc(C#Cc2cncc3c2O[C@H]2C[C@@H]3N(C(=O)C(C)(C)C(F)F)C2)c(OC)n1` [Compound 2-94, 1-((2S,5S)-9-((2,4-dimethoxypyrimidin-5-yl)ethynyl)-2,3-dihydro-2,5-methanopyrido[3,4-f][1,4]oxazepin-4(5H)-yl)-3,3-difluoro-2,2-dimethylpropan-1-one] the value was 49 nM; for `Cc1ncc(C#Cc2cncc3c2O[C@H]2C[C@@H]3N(C(=O)C(C)(C)C(F)F)C2)c(C)n1` [Compound 2-95, 1-((2S,5S)-9-((2,4-dimethylpyrimidin-5-yl)ethynyl)-2,3-dihydro-2,5-methanopyrido[3,4-f][1,4]oxazepin-4(5H)-yl)-3,3-difluoro-2,2-dimethylpropan-1-one], 36 nM; for `O=C(N1C[C@@H]2C[C@H]1c1cncc(C#Cc3cncc(F)c3)c1O2)C12CCC(C(F)(F)F)(CC1)C2` [Compound 2-96, ((2S,5S)-9-((5-Fluoropyridin-3-yl)ethynyl)-2,3-dihydro-2,5-methanopyrido[3,4-f][1,4]oxazepin-4(5H)-yl)(4-(trifluoromethyl)bicyclo[2.2.1]heptan-1-yl)methanone], 48 nM.
Consider `O=C(N1C[C@@H]2C[C@H]1c1cncc(C#Cc3ccccc3)c1O2)C12CCC(F)(CC1)C2` [Compound 2-97, (4-Fluorobicyclo[2.2.1]heptan-1-yl)((2S,5S)-9-(phenylethynyl)-2,3-dihydro-2,5-methanopyrido[3,4-f][1,4]oxazepin-4(5H)-yl)methanone], for which the IC50 was found to be 18 nM.
Take `COc1cccc(C#Cc2cncc3c2O[C@H]2C[C@@H]3N(C(=O)C34CCC(F)(CC3)C4)C2)c1` [Compound 2-98, (4-fluorobicyclo[2.2.1]heptan-1-yl)((2S,5S)-9-((3-methoxyphenyl)ethynyl)-2,3-dihydro-2,5-methanopyrido[3,4-f][1,4]oxazepin-4(5H)-yl)methanone]: the IC50 was 13 nM.
